In US9108957B2 (MITSUBISHI TANABE PHARMA CORPORATION, priority 2009, dated 2015) one finds IC50 data, which are given here for 32 compounds.

This test concerns the target human recombinant TPK1 (Homo sapiens, UniProt P49841). Briefly: Inhibitory activity against P-GS1 phosphorylation by TPK1 (Kinase Glo luminescence). Type of test: biochemical. The note with it: 7.5 μM P-GS1, 10 μM ATP, 25° C. for 16 hours, Kinase Glo Reagent luminescent signal. On the procedure:
Inhibitory Activity of the Medicament of the Present Invention Against P-GS1 Phosphorylation by Bovine Cerebral TPK1
A mixture containing 100 mM HEPES-sodium hydroxide (pH 7.2), 1 mM magnesium acetate, 1 mM EGTA, 1 mM dithiothreitol (DTT), 0.02% Tween 20, 7.5 μM P-GS1, 10 μM ATP, human recombinant TPK1 and a compound shown in Table (a final mixture contained 1% DMSO deriving from a solution of a test compound prepared in the presence of 10% DMSO) was used as a reaction system. The phosphorylation was started by adding ATP, and the reaction was conducted at 25° C. for 16 hours. Then equal volume of Kinase Glo Reagent (Promega) was added to the mixture and luminescent signal from the mixture was measured. IC50 for each compound was calculated by setting the data of mixture without enzyme as 0% activity and that without compound as 100% activity.

Counter-ions that a name gives are not always drawn.

human recombinant TPK1, sequence (P49841 whole entry): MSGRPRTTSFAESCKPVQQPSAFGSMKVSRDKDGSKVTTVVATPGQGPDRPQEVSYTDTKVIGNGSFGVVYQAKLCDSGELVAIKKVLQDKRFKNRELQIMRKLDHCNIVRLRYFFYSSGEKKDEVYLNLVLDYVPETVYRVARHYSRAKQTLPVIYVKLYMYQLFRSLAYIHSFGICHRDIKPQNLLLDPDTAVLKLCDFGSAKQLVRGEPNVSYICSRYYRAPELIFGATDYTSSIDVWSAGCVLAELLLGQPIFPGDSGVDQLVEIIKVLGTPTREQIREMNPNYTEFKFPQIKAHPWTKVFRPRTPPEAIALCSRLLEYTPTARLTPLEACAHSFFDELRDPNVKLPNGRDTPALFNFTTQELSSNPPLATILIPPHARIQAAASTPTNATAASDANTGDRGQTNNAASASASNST

`Cc1nc(-c2ccc(C3CCN(c4nc(-c5ccncn5)cc(=O)n4C)CCO3)cc2)no1` (single isomer, unassigned; (+)) [Compound A100, (+)-2-[7-[4-(5-methyl-1,2,4-oxadiazol-3-yl)-phenyl]-1,4-oxazepan-4-yl]-3-methyl-6-(pyrimidin-4-yl)pyrimidin-4(3H)-one]: the IC50 came out at 15 nM.
Turning to `Cn1c(N2CCCO[C@@H](c3ccc(F)cc3)C2)nc(-c2ccncc2)cc1=O` [Compound A022, (S)-2-[2-(4-fluorophenyl)-1,4-oxazepan-4-yl]-3-methyl-6-(pyridin-4-yl)pyrimidin-4(3H)-one], the half-inhibitory concentration (IC50) amounted to 12.5 nM.
With `Cn1c(N2CCOCCC2c2ccccc2)nc(-c2ccncn2)cc1=O` (centres unmarked) [Compound A071, 3-methyl-2-(5-phenyl-1,4-oxazepan-4-yl)-6-(pyrimidin-4-yl)pyrimidin-4(3H)-one] the figure was 41 nM.
With `COc1cccc(C2CCN(c3nc(-c4ccncc4)cc(=O)n3C)CCO2)c1` (centres unmarked) [Compound A109, 2-[7-(3-methoxyphenyl)-1,4-oxazepan-4-yl]-3-methyl-6-(pyridin-4-yl)pyrimidin-4(3H)-one] the figure was 28 nM; with `CC1COCCN(c2nc(-c3ccncc3)cc(=O)n2C)C1` (centres unmarked) [Compound A088, 2-(6-methyl-1,4-oxazepan-4-yl)-3-methyl-6-(pyridin-4-yl)pyrimidin-4(3H)-one], 176 nM; with `Cn1c(N2CCOC(c3ccc(Br)cc3)CC2)nc(-c2ccncc2F)cc1=O` (single isomer, unassigned; (-)) [Compound A120, (−)-2-(7-(4-bromophenyl)-1,4-oxazepan-4-yl)-6-(3-fluoropyridin-4-yl)-3-methylpyrimidin-4(3H)-one], 82.8 nM.
Consider `Cn1c(N2CCCO[C@H](c3cccc(Br)c3)C2)nc(-c2ccncc2F)cc1=O` [Compound A025, (R)-2-[2-(3-bromophenyl)-1,4-oxazepan-4-yl]-6-(3-fluoropyridin-4-yl)-3-methylpyrimidin-4(3H)-one], for which the IC50 worked out at 13.7 nM.
As to `Cn1c(N2CCCO[C@@H](c3ccc(C#N)cc3)C2)nc(-c2ccncn2)cc1=O` [Compound A028, (S)-2-[2-(4-cyanophenyl)-1,4-oxazepan-4-yl]-3-methyl-6-(pyrimidin-4-yl)pyrimidin-4(3H)-one], the 50% inhibitory concentration (IC50) was determined as 17.6 nM.
The figure for `Cn1c(N2CCCO[C@H](c3cccc(C(N)=O)c3)C2)nc(-c2ccncn2)cc1=O` [Compound A049, (R)-2-[2-(3-aminocarbonylphenyl)-1,4-oxazepan-4-yl]-3-methyl-6-(pyrimidin-4-yl)pyrimidin-4(3H)-one] is 70.6 nM; for `Cc1noc(-c2cccc([C@H]3CN(c4nc(-c5ccncc5F)cc(=O)n4C)CCCO3)c2)n1` [Compound A032, (S)-2-[2-[3-(3-methyl-1,2,4-oxadiazol-5-yl)-phenyl]-1,4-oxazepan-4-yl]-6-(3-fluoropyridin-4-yl)-3-methylpyrimidin-4(3H)-one] it is 21.6 nM.
Regarding `Cc1nc(-c2ccc(C3COCCN(c4nc(-c5ccncn5)cc(=O)n4C)C3)cc2)no1` (centres unmarked) [Compound A086, 2-[6-[4-(5-methyl-1,2,4-oxadiazol-3-yl)-phenyl]-1,4-oxazepan-4-yl]-3-methyl-6-(pyrimidin-4-yl)pyrimidin-4(3H)-one], the 50% inhibitory concentration (IC50) was found to be 35.8 nM.
`Cn1c(N2CCCO[C@@H](c3ccc(Br)cc3)C2)nc(-c2ccncn2)cc1=O` [Compound A009, (S)-2-[2-(4-bromophenyl)-1,4-oxazepan-4-yl]-3-methyl-6-(pyrimidin-4-yl)pyrimidin-4(3H)-one]: the IC50 worked out at 5.2 nM.
As to `Cn1c(N2CCOC(c3ccc(Br)cc3)CC2)nc(-c2ccncc2F)cc1=O` (single isomer, unassigned; (+)) [Compound A114, (+)-2-(7-(4-bromophenyl)-1,4-oxazepan-4-yl)-6-(3-fluoropyridin-4-yl)-3-methylpyrimidin-4(3H)-one], the 50% inhibitory concentration (IC50) is 34.7 nM.
Take `Cc1nc(-c2cccc([C@H]3CN(c4nc(-c5ccncc5F)cc(=O)n4C)CCCO3)c2)no1` [Compound A016, (S)-2-[2-[3-(5-methyl-1,2,4-oxadiazol-3-yl)-phenyl]-1,4-oxazepan-4-yl]-6-(3-fluoropyridin-4-yl)-3-methylpyrimidin-4(3H)-one]: the concentration for half-maximal inhibition (IC50) amounted to 10.3 nM.
With `COc1ccc(C2CCN(c3nc(-c4ccncn4)cc(=O)n3C)CCO2)cc1` (centres unmarked) [Compound A117, 2-(7-(4-methoxyphenyl)-1,4-oxazepan-4-yl)-3-methyl-6-(pyrimidin-4-yl)pyrimidin-4(3H)-one] the figure was 54.7 nM.
`Cn1c(N2CCCO[C@H](c3cccc(Br)c3)C2)nc(-c2ccncc2)cc1=O` [Compound A023, (R)-2-[2-(3-bromophenyl)-1,4-oxazepan-4-yl]-3-methyl-6-(pyridin-4-yl)pyrimidin-4(3H)-one]: the IC50 amounted to 12.7 nM.
In the case of `Cn1c(N2CCCOC(c3ccc(F)cc3)C2)nc(-c2ccncc2)cc1=O` (centres unmarked) [Compound A035, 2-[2-(4-fluorophenyl)-1,4-oxazepan-4-yl]-3-methyl-6-(pyridin-4-yl)pyrimidin-4(3H)-one hydrochloride], the IC50 is 27 nM.
Turning to `COc1ccccc1C1CCN(c2nc(-c3ccncc3)cc(=O)n2C)CCO1` (centres unmarked) [Compound A115, 2-(7-(2-methoxyphenyl)-1,4-oxazepan-4-yl)-3-methyl-6-(pyridin-4-yl)pyrimidin-4(3H)-one], the IC50 is 47.6 nM.
Regarding `Cn1c(N2CCOC(c3ccc(F)cc3)CC2)nc(-c2ccncn2)cc1=O` (centres unmarked) [Compound A098, 2-[7-(4-fluorophenyl)-1,4-oxazepan-4-yl]-3-methyl-6-(pyrimidin-4-yl)pyrimidin-4(3H)-one], the IC50 was 13.8 nM.
As for `Cn1c(N2CCCO[C@H](c3cccc(Br)c3)C2)nc(-c2ccncn2)cc1=O` [Compound A043, (R)-2-[2-(3-bromophenyl)-1,4-oxazepan-4-yl]-3-methyl-6-(pyrimidin-4-yl)pyrimidin-4(3H)-one], the 50% inhibitory concentration (IC50) was determined as 51 nM.
Turning to `Cc1noc(-c2ccc(C3COCCN(c4nc(-c5ccncc5F)cc(=O)n4C)C3)cc2)n1` (centres unmarked) [Compound A077, 2-[6-[4-(3-methyl-1,2,4-oxadiazol-5-yl)-phenyl]-1,4-oxazepan-4-yl]-6-(3-fluoropyridin-4-yl)-3-methylpyrimidin-4(3H)-one], the IC50 came out at 5.9 nM.
With `COc1cccc(C2CCN(c3nc(-c4ccncn4)cc(=O)n3C)CCO2)c1` (centres unmarked) [Compound A101, 2-[7-(3-methoxyphenyl)-1,4-oxazepan-4-yl]-3-methyl-6-(pyrimidin-4-yl)pyrimidin-4(3H)-one] the figure was 15.3 nM; with `Cc1noc(-c2cccc([C@H]3CN(c4nc(-c5ccncc5)cc(=O)n4C)CCCO3)c2)n1` [Compound A056, (S)-2-[2-[3-(3-methyl-1,2,4-oxadiazol-5-yl)-phenyl]-1,4-oxazepan-4-yl]-3-methyl-6-(pyridin-4-yl)pyrimidin-4(3H)-one], 169 nM.
Consider `Cn1c(N2CCOC(c3ccccc3F)CC2)nc(-c2ccncc2)cc1=O` (centres unmarked) [Compound A110, 2-(7-(2-fluorophenyl)-1,4-oxazepan-4-yl)-3-methyl-6-(pyridin-4-yl)pyrimidin-4(3H)-one], for which the half-maximal inhibitory concentration (IC50) worked out at 29.2 nM.
Turning to `Cn1c(N2CCOC(c3ccc(Br)cc3)CC2)nc(-c2ccncn2)cc1=O` (single isomer, unassigned; (+)) [Compound A096, (+)-2-[7-(4-bromophenyl)-1,4-oxazepan-4-yl]-3-methyl-6-(pyrimidin-4-yl)pyrimidin-4(3H)-one], the IC50 was 10.8 nM.
With `Cn1c(N2CCCOCC2)nc(-c2ccncc2F)cc1=O` [Compound A001, 6-(3-fluoropyridin-4-yl)-3-methyl-2-(1,4-oxazepan-4-yl)pyrimidin-4(3H)-one] the figure was 27.4 nM.
As to `Cn1c(N2CCCOCC2c2ccccc2)nc(-c2ccncn2)cc1=O` (stereo in doubt) [Compound A065, (S)-3-methyl-2-(3-phenyl-1,4-oxazepan-4-yl)-6-(pyrimidin-4-yl)pyrimidin-4(3H)-one], the IC50 amounted to 97.5 nM.
Regarding `Cc1nc(-c2ccc(C3CN(c4nc(-c5ccncn5)cc(=O)n4C)CCCO3)cc2)no1` (stereo in doubt) [Compound A034, (R)-2-[2-[4-(5-methyl-1,2,4-oxadiazol-3-yl)-phenyl]-1,4-oxazepan-4-yl]-3-methyl-6-(pyrimidin-4-yl)pyrimidin-4(3H)-one], the half-maximal inhibitory concentration (IC50) came to 23.5 nM.
Turning to `Cc1noc(-c2ccc(C3CCN(c4nc(-c5ccncc5F)cc(=O)n4C)CCO3)cc2)n1` (single isomer, unassigned; (+)) [Compound A090, (+)-2-[7-[4-(3-methyl-1,2,4-oxadiazol-5-yl)-phenyl]-1,4-oxazepan-4-yl]-6-(3-fluoropyridin-4-yl)-3-methylpyrimidin-4(3H)-one], the IC50 turned out to be 6.1 nM.
On to `Cn1c(N2CCCO[C@@H](c3ccc(C(N)=O)cc3)C2)nc(-c2ccncc2F)cc1=O` [Compound A007, (S)-2-[2-(4-aminocarbonylphenyl)-1,4-oxazepan-4-yl]-6-(3-fluoropyridin-4-yl)-3-methylpyrimidin-4(3H)-one], for which the half-maximal inhibitory concentration (IC50) is 3.5 nM.
For `Cc1nc(-c2ccc(C3COCCN(c4nc(-c5ccncc5F)cc(=O)n4C)C3)cc2)no1` (centres unmarked) [Compound A083, 2-[6-[4-(5-methyl-1,2,4-oxadiazol-3-yl)-phenyl]-1,4-oxazepan-4-yl]-6-(3 fluoropyridin-4-yl)-3-methylpyrimidin-4(3H)-one], the 50% inhibitory concentration (IC50) stood at 14 nM.
With `Cn1c(N2CCOC(c3ccccc3F)CC2)nc(-c2ccncc2F)cc1=O` (centres unmarked) [Compound A014, 2-[7-(2-fluorophenyl)-1,4-oxazepan-4-yl]-6-(3-fluoropyridin-4-yl)-3-methylpyrimidin-4(3H)-one] the figure was 8.15 nM.

The IC50 is the concentration that inhibits the measured activity by half.
